From patent US10953012B2, “Heterocyclic compounds for the inhibition of pask” (BioEnergenix LLC, priority 2011, dated 2021) come the findings set out here.

Molecules are shown by their SMILES. Some results are limits rather than exact numbers.

For this assay, the target named is PASK (Homo sapiens (Human), UniProt Q96RG2). The experiment in a line: PAS Kinase FRET Assay. The class given is biochemical. The settings on record: TR-FRET assay; read-out: IC50 Kinase Domain. From the text: The aim of the FRET assay is to determine the inhibition potential of test compounds on targeted kinase. This assay platform provides a homogenous screening method for measuring kinase activity by quantitating the amount of phospho-substrate in solution following a kinase reaction.
Chain of PASK (Q96RG2 999-1251): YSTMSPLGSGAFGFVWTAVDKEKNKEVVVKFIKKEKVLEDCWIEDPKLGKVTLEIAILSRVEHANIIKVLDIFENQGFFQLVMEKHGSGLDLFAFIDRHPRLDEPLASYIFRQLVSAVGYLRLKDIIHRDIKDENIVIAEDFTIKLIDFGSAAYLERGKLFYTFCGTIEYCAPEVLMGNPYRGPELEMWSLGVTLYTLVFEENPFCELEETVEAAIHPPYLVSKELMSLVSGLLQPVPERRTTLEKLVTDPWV
In the presence of kinase and ATP, the Ulight-peptide is phosphorylated and captured by an anti-phospho-substrate antibody, which brings the Eu chelate donor and Ulight acceptor dyes into close proximity. Upon excitation at 340 nm, the Eu chelate transfers its energy to the Ulight dye, resulting in a fluorescent light emission at 665 nm
Titration of kinase at 1 mM ATP was achieved via the following protocol. After making serial three-fold dilutions of PASK (Invitrogen) in reaction buffer across the plate; 5 μl of kinase dilution and 5 μl substrate/ATP mix were added to the wells of the white Optiplate-384 (PerkinElmer). The contents of the plate were and incubated at RT for 1 h. The reaction was stopped by adding 5 μl of stop solution to each test well followed by mixing and incubation at RT for 10 minutes. 5 μl of detection mix (detection antibody diluted in detection buffer) was added; the contents of the plate were mixed and then incubated in the dark for 1 hour at RT. The signal was recorded at TR-FRET mode (665 nm/615 nm). The results were graphed to calculate the EC50.
Titration of ATP at the EC50 concentration of kinase to determine ATP Km, app. was performed using the following method. After making serial dilutions of ATP (Invitrogen), 5 μl of ATP dilution and 5 μl substrate/kinase mix were added to the wells of the white Optiplate-384 (PerkinElmer). The contents of the plate were and incubated at RT for 1 h. The reaction was stopped by adding 5 μl of stop solution to each test well followed by mixing and incubation at RT for 10 minutes. 5 μl of detection mix (detection antibody diluted in detection buffer) was added; the contents of the plate were mixed and then incubated in the dark for 1 hour at RT. The signal was recorded at TR-FRET mode (665 nm/615 nm). The results were graphed to calculate the EC50 as the ATP Km, app.
Compound screening was done via the following method. 10 mM stock solution of test compound in DMSO was prepared by dissolving test compound in DMSO at RT for 1 hour, and then sonicating at 100% output for 8 minutes. If compound is not soluble under this condition, it was diluted to 3 mM. Kinase reaction buffer was prepared containing 10 mM MgCl2, 50 mM HEPES, 1 mM EGTA, 0.01% TWEEN-20, 2 mM DTT. Serial dilutions of the test compounds were prepared at 4×final assay concentrations using Freedom EVO200® dispensing system as follows: 12×10^−5 M, 4×10^−5 M, 1.33×10^−5 M, 4.44×10^−6 M, 1.48×10^−6 M, 4.92×10^−7 M, 1.65×10^−7 M, […], 1.82×10^−8M, 6.09×10^−9, 2.03×10^−9 M. Test compounds (2.5 μl at 4× the final assay concentration) was added to wells using Freedom EVO200® dispensing system. As a positive control, 2.5 μl of positive compound was added to assay wells, and 2.5 μl of DMSO to assay wells as vehicle control. Kinase solution was prepared in reaction buffer at 2×final assay concentration. Kinase solution (5 μl) was added to each well of the assay plate. The substrate and ATP solution was prepared in kinase reaction buffer at 4×final assay concentration. The kinase reaction was started by adding 2.5 μl of substrate+ATP mix solution to each well of the assay plate. The plate is mixed on a plate shaker; then covered and allowed to react for 2 hours in the dark at 25° C. without shaking. The reaction was stopped by adding 5 μl of stop solution to each test well followed by mixing and incubation at RT for 10 minutes in the dark. 5 μl of detection mix (detection antibody diluted in detection buffer) was added; the contents of the plate were mixed and then incubated in the dark for 1 hour at RT. The signal was recorded at TR-FRET mode (665 nm/615 nm).
(Time-resolved FRET reads energy transfer from a long-lived donor to a nearby acceptor.)
For orientation: IC50 means the concentration that gives 50% inhibition. For `Cc1nn2c(=O)cc(-c3ccc(O)cc3)[nH]c2c1-c1ccccc1` [Example 80, 5-(4-Hydroxyphenyl)-2-methyl-3-phenylpyrazolo[1,5-a]pyrimidin-7(4H)-one], the concentration for half-maximal inhibition (IC50) is not above 10 µM.

Regarding `COc1ccc(-c2cnn3c(=O)cc(-c4ccc5c(c4)OCCO5)[nH]c23)cc1` [Example 82, 5-(2,3-Dihydrobenzo[b][1,4]dioxin-6-yl)-3-(4-methoxyphenyl)pyrazolo[1,5-a]pyrimidin-7(4H)-one], the IC50 was not above 10 µM.

`Cc1nn2c(=O)cc(-c3ccc4ncccc4c3)[nH]c2c1-c1ccc(F)cc1` [Example 83, 3-(4-Fluorophenyl)-2-methyl-5-(quinolin-6-yl)pyrazolo[1,5-a]pyrimidin-7(4H)-one]: the IC50 is not above 10 µM.

For `COc1ccc(-c2c(C)nn3c(=O)cc(-c4ccc5ncccc5c4)[nH]c23)cc1` [Example 84, 3-(4-Methoxyphenyl)-2-methyl-5-(quinolin-6-yl)pyrazolo[1,5-a]pyrimidin-7(4H)-one], the IC50 was not above 10 µM.

On to `COc1ccc(-c2c(C)nn3c(=O)cc(-c4ccc5c(c4)OCCO5)[nH]c23)cc1` [Example 85, 5-(2,3-Dihydrobenzo[b][1,4]dioxin-6-yl)-3-(4-methoxyphenyl)-2-methylpyrazolo[1,5-a]pyrimidin-7(4H)-one], for which the IC50 is not above 10 µM.

In the case of `O=c1cc(-c2ccc3c(c2)OCCO3)[nH]c2c(-c3ccc(F)cc3)cnn12` [Example 86, 5-(2,3-Dihydrobenzo[b][1,4]dioxin-6-yl)-3-(4-fluorophenyl)pyrazolo[1,5-a]pyrimidin-7(4H)-one], the 50% inhibitory concentration (IC50) is not above 10 µM.

`Cc1nn2c(=O)cc(-c3ccc4[nH]ccc4c3)[nH]c2c1-c1ccccc1` [Example 87, 5-(1H-Indol-5-yl)-2-methyl-3-phenylpyrazolo[1,5-a]pyrimidin-7(4H)-one]: the half-inhibitory concentration (IC50) is not above 10 µM.

Consider `O=c1cc(-c2ccccc2)[nH]c2c(-c3ccc(N4CCCCC4)nc3)cnn12` [Example 88, 5-Phenyl-3-(6-(piperidin-1-yl)pyridin-3-yl)pyrazolo[1,5-a]pyrimidin-7(4H)-one], for which the IC50 was not below 10 µM.

Turning to `O=c1cc(-c2ccc3c(c2)OCCO3)[nH]c2c(-c3cccc(Cl)c3)cnn12` [Example 90, 3-(3-Chlorophenyl)-5-(2,3-dihydrobenzo[b][1,4]dioxin-6-yl)pyrazolo[1,5-a]pyrimidin-7(4H)-one], the IC50 is not above 10 µM.

As for `O=c1cc(-c2ccc3c(c2)OCCO3)[nH]c2c(-c3ccc(Br)cc3)cnn12` [Example 104, 3-(4-Bromophenyl)-5-(2,3-dihydrobenzo[b][1,4]dioxin-6-yl)pyrazolo[1,5-a]pyrimidin-7(4H)-one], the IC50 was not above 10 µM.

`O=c1cc(-c2ccccc2)[nH]c2c(-c3ccc(O)nc3)cnn12` [Example 105, 3-(6-Hydroxypyridin-3-yl)-5-phenylpyrazolo[1,5-a]pyrimidin-7(4H)-one]: the IC50 was not above 10 µM.

In the case of `COc1ccc(-c2cnn3c(=O)cc(-c4ccccc4)[nH]c23)cn1` [Example 112, 3-(6-Methoxypyridin-3-yl)-5-phenylpyrazolo[1,5-a]pyrimidin-7(4H)-one], the IC50 was not above 10 µM.

As for `O=C(O)c1cnn2c(=O)cc(-c3ccc4c(c3)OCCO4)[nH]c12` [Example 115, 5-(2,3-Dihydrobenzo[b][1,4]dioxin-6-yl)-7-oxo-4,7-dihydropyrazolo[1,5-a]pyrimidine-3-carboxylic acid], the IC50 is not above 10 µM.

For the compound `O=c1cc(-c2ccc3c(c2)OCCO3)[nH]c2c(-c3ccc(N4CCOCC4)nc3)cnn12` [Example 118, 5-(2,3-Dihydrobenzo[b][1,4]dioxin-6-yl)-3-(6-morpholinopyridin-3-yl)pyrazolo[1,5-a]pyrimidin-7(4H)-one], the half-inhibitory concentration (IC50) is not above 10 µM.

Consider `O=c1cc(-c2ccc(Cl)cc2Cl)[nH]c2c(-c3ccccn3)cnn12` [Example 124, 5-(2,4-Dichlorophenyl)-3-(pyridin-2-yl)pyrazolo[1,5-a]pyrimidin-7(4H)-one], for which the IC50 is not above 10 µM.

Take `O=c1cc(-c2ccc(Cl)cc2)[nH]c2c(Cc3ccccc3)cnn12` [Example 132, 3-benzyl-5-(4-chlorophenyl)pyrazolo[1,5-a]pyrimidin-7(411)-one]: the IC50 is not above 10 µM.

With `CCCc1cnn2c(=O)cc(-c3ccc4c(c3)OCO4)[nH]c12` [Example 134, 5-(Benzo[d][1,3]dioxol-5-yl)-3-propylpyrazolo[1,5-a]pyrimidin-7(4H)-one], the IC50 was not above 10 µM.

Regarding `COc1cc(Cl)ccc1-c1cc(=O)n2ncc(-c3ccccn3)c2[nH]1` [Example 136, 5-(4-Chloro-2-methoxyphenyl)-3-(pyridin-2-yl)pyrazolo[1,5-a]pyrimidin-7(4H)-one], the IC50 was not above 10 µM.

For `COc1nn2c(=O)cc(-c3ccc(Cl)cc3)[nH]c2c1C#N` [Example 138, 5-(4-Chlorophenyl)-2-methoxy-7-oxo-4,7-dihydropyrazolo[1,5-a]pyrimidine-3-carbonitrile], the IC50 is not above 10 µM.

Turning to `N#Cc1c(O)nn2c(=O)cc(-c3ccc(Cl)cc3)[nH]c12` [Example 139, 5-(4-Chlorophenyl)-2-hydroxy-7-oxo-4,7-dihydropyrazolo[1,5-a]pyrimidine-3-carbonitrile], the IC50 is not above 10 µM.

On to `CS(=O)(=O)c1ccc(-c2cc(=O)n3ncc(-c4ccccn4)c3[nH]2)cc1` [Example 140, 5-(4-(Methylsulfonyl)phenyl)-3-(pyridin-2-yl)pyrazolo[1,5-a]pyrimidin-7(4H)-one], for which the concentration for half-maximal inhibition (IC50) was not above 10 µM.

Consider `O=C(c1cnn2c(=O)cc(-c3ccc4c(c3)OCCO4)[nH]c12)N1CCCC1` [Example 146, 5-(2,3-Dihydrobenzo[b][1,4]dioxin-6-yl)-3-(pyrrolidine-1-carbonyl)pyrazolo[1,5-a]pyrimidin-7(4H)-one], for which the IC50 was not above 10 µM.

Consider `Nc1nn2c(=O)cc(-c3cc4ccccc4o3)[nH]c2c1-c1ccccn1` [Example 151, 2-Amino-5-(benzofuran-2-yl)-3-(pyridin-2-yl)pyrazolo[1,5-a]pyrimidin-7(4H)-one], for which the IC50 was not above 10 µM.

With `Nc1nn2c(=O)cc(-c3ccc(Cl)c(Cl)c3)[nH]c2c1-c1ccccn1` [Example 153, 2-Amino-5-(3,4-dichlorophenyl)-3-(pyridin-2-yl)pyrazolo[1,5-a]pyrimidin-7(4H)-one], the concentration for half-maximal inhibition (IC50) was not above 10 µM.

For the compound `O=c1cc(-c2ccccc2)[nH]c2c(-c3cccnc3)c(O)nn12` [Example 154, 2-Hydroxy-5-phenyl-3-(pyridin-3-yl)pyrazolo[1,5-a]pyrimidin-7(4H)-one], the IC50 is not above 10 µM.

On to `COc1nn2c(=O)cc(-c3ccc4c(c3)OCO4)[nH]c2c1-c1ccccn1` [Example 157, 5-(Benzo[d][1,3]dioxol-5-yl)-2-methoxy-3-(pyridin-2-yl)pyrazolo[1,5-a]pyrimidin-7(4H)-one], for which the IC50 is not above 10 µM.

`O=c1cc(-c2ccc(Cl)cc2F)[nH]c2c(-c3ccccn3)cnn12` [Example 162, 5-(4-Chloro-2-fluorophenyl)-3-(pyridin-2-yl)pyrazolo[1,5-a]pyrimidin-7(4H)-one]: the half-inhibitory concentration (IC50) is not above 10 µM.

With `Nc1nn2c(=O)cc(-c3ccc4occc4c3)[nH]c2c1-c1ccccn1` [Example 165, 2-Amino-5-(benzofuran-5-yl)-3-(pyridin-2-yl)pyrazolo[1,5-a]pyrimidin-7(4H)-one], the IC50 was not above 10 µM.

As for `Cc1coc2ccc(-c3cc(=O)n4nc(N)c(-c5ccccn5)c4[nH]3)cc12` [Example 166, 2-Amino-5-(3-methylbenzofuran-5-yl)-3-(pyridin-2-yl)pyrazolo[1,5-a]pyrimidin-7(4H)-one], the IC50 was not above 10 µM.
